{"source": "patent US7087648B1", "about": "“Methods for modulating macrophage proliferation using polyamine analogs” (The Regents of the University of California, priority 1997, dated 2006)", "key": {"CD14^+ cells [1]": {"system": "CD14^+ cells", "test": "In vitro dose response in NHL patient PBMC; total CD14^+ cell survival", "assay_type": "cell-based, human", "conditions": "for EC50: Homo sapiens, PBMC, 120 h, read-out: ED50 (50% of cells killed); for EC50 / ED80 (80% of cells killed): 5 days of culture; for drug sensitivity in vitro: post in vivo DEHOP administration blood specimens", "procedure": "To test whether patient macrophages would respond to administration of DEHOP in vitro, CD14 cells in a peripheral blood mononuclear cell preparation (PBMC) were exposed to different concentrations of DEHOP and the proportion of CD14 positive cells surviving at the end of 5 days of culture was assessed in drug treated cells as compared to controls. Specimens obtained pre chemotherapy were compared to specimens obtained 2 weeks post therapy. […] For patient four, the first specimen was obtained one day after the first cycle of DEHOP; the second specimen was obtained one week later. The effective dose 50 (where 50% of cells were killed), and effective dose 80 (where 80% of cells were killed) were calculated for each set of patient specimens exposed to DEHOP in vitro."}, "brain cell aggregates": {"system": "brain cell aggregates", "test": "In vitro cell killing of brain cell aggregates by macrophage supernatants treated or not with DEHOP", "assay_type": "cell-based, human", "conditions": "FIG. 2", "procedure": "To collect a maximum number of monocytes (both heavy and light), we used a one-step Percoll protocol. 1.5 mL whole heparinised blood was mixed with an equal volume of isotonic phosphate-buffered solution and layered over 5 mL Percoll at 1.087. The cells were centrifuged, washed, and resuspended in RPMI 1640 supplemented with 10% fetal calf serum at […]. To separate non-adherent lymphocytes from adherent monocytes, culture dishes were washed with RPMI after overnight incubation. The adherent cells were re-fed with RPMI and cultured for 7 days to obtain supernatants. Supernatants were clarified by centrifugation at 90,000 g over 25% sucrose overnight. The supernatant was filtered through a 0.22 μm syringe filter and stored at −70° C.\nHuman fetal brain tissue from between 16 and 18 weeks' gestation was obtained from elective abortions for preparation of brain cell aggregates. These aggregates contain all the cells of the central nervous system including neurons, astrocytes, oligodendrocytes with accompanying myelin, and microglial cells. After 10 days in culture, and before experimentation, aggregates were tested for viability by trypan-blue exclusion. […]\nLactate dehydrogenase is released on cell lysis. […] The brain aggregate supernatant was reacted with yellow tetrazolium salt and absorbance was read at 490 nm. […]"}, "AIDS related lymphoma": {"system": "AIDS related lymphoma", "test": "Clinical response to DEHOP in chemotherapy resistant AIDS related lymphoma patients", "assay_type": "in vivo, human", "conditions": "for tumor relapse: after two cycles of DEHOP, no third cycle", "procedure": "(§1) Four patients who had failed standard chemotherapy for treatment of their AIDS related lymphoma (therapy included at least CHOP chemotherapy up to six cycles). were evaluated for response to DEHOP administration in vivo. Patients had blood drawn pre administration of drug for evaluation of macrophage activation. This blood was also evaluated for response to DEHOP in vitro. […] Blood was obtained at 1 week after completion of the first and second cycles of therapy. The blood specimens were evaluated for macrophage proliferation (proliferating cell nuclear antigen, PCNA expression), and activation (percentage CD69 expression). Response to therapy was evaluated by direct observation of tumor (3 patients) and persistence or resolution of symptoms (1 patient with GI lymphoma)."}, "[2]": {"system": "human brain tumor cell lines", "conditions": "cited from earlier work"}, "CD14^+ cells [3]": {"system": "CD14^+ cells", "test": "In vivo response of blood CD14 cells (PCNA, CD69 expression) to DEHOP in AIDS lymphoma patients", "design": "species or system human", "conditions": "FIG. 7", "procedure": "as §1\nBecause of intercurrent medical problems the patients were not allowed to receive a third cycle of DEHOP and both patients ultimately relapsed, FL on day 47 and LT on day 54. All of the macrophage activation parameters increased in both patients prior to their clinical objective tumor relapse."}}, "note": "Read-outs that look alike come from different tables or passages of the source.", "data": [{"smiles": "CCNCCCCNCCCCNCCCCNCC", "note": "[DEHOP, 1,14-bis(ethylamino)-5,10-diazatetradecane]", "values": [{"measurement": "EC50", "setting": "CD14^+ cells [1]; patient one, Pre specimen", "value": 10, "unit": "µM"}, {"measurement": "EC50", "setting": "CD14^+ cells [1]; patient three, Post specimen", "value": 0.1, "unit": "µM"}, {"measurement": "EC50", "setting": "CD14^+ cells [1]; patient three, Pre specimen", "value": 10, "unit": "µM"}, {"measurement": "EC50", "setting": "CD14^+ cells [1]; patient two, Post specimen", "value": "> 10", "unit": "µM"}, {"measurement": "EC50", "setting": "CD14^+ cells [1]; patient two, Pre specimen", "value": 1, "unit": "µM"}, {"measurement": "ED80 (80% of cells killed)", "setting": "CD14^+ cells [1]; patient four, Post specimen", "value": 0.1, "unit": "µM"}, {"measurement": "ED80 (80% of cells killed)", "setting": "CD14^+ cells [1]; patient four, Pre specimen", "value": 1.0, "unit": "µM"}, {"measurement": "ED80 (80% of cells killed)", "setting": "CD14^+ cells [1]; patient one, Pre specimen", "value": ">10", "unit": "µM"}, {"measurement": "ED80 (80% of cells killed)", "setting": "CD14^+ cells [1]; patient three, Post specimen", "value": 0.8, "unit": "µM"}, {"measurement": "ED80 (80% of cells killed)", "setting": "CD14^+ cells [1]; patient three, Pre specimen", "value": ">10", "unit": "µM"}, {"measurement": "ED80 (80% of cells killed)", "setting": "CD14^+ cells [1]; patient two, Post specimen", "value": ">10", "unit": "µM"}, {"measurement": "ED80 (80% of cells killed)", "setting": "CD14^+ cells [1]; patient two, Pre specimen", "value": ">10", "unit": "µM"}, {"measurement": "drug sensitivity in vitro", "setting": "CD14^+ cells [1]; patient two", "value": "persistently resistant to drug"}, {"measurement": "drug sensitivity in vitro", "setting": "CD14^+ cells [1]; patients", "value": "marked drug sensitivity"}, {"measurement": "cell killing by macrophage supernatants", "setting": "brain cell aggregates; non-dementia disease control (AIDS lymphoma), with or without DEHOP treatment", "value": "did not show significant cell killing"}, {"measurement": "cell killing by macrophage supernatants", "setting": "brain cell aggregates; peripheral blood of an AIDS dementia patient, preparations treated with DEHOP", "value": "virtually disappeared"}, {"measurement": "Response to Therapy: objective measured tumor response after first week of Rx", "setting": "AIDS related lymphoma; patient four, DEHOP sq for 5 days, 25 or 50 mg/m^2", "value": ">50% objective measured tumor"}, {"measurement": "tumor relapse", "setting": "AIDS related lymphoma; patient four", "value": 47, "unit": "days"}, {"measurement": "Response to Therapy", "setting": "AIDS related lymphoma; patient one, DEHOP sq for 5 days, 25 or 50 mg/m^2", "value": "None"}, {"measurement": "Response to Therapy", "setting": "AIDS related lymphoma; patient three, DEHOP sq for 5 days, 25 or 50 mg/m^2", "value": "Clinical Response"}, {"measurement": "tumor relapse", "setting": "AIDS related lymphoma; patient three", "value": 54, "unit": "days"}, {"measurement": "Response to Therapy", "setting": "AIDS related lymphoma; patient two, DEHOP sq for 5 days, 25 or 50 mg/m^2", "value": "None"}, {"measurement": "clinical response", "setting": "AIDS related lymphoma; patients, day 35 after initiation of study", "value": "objective and subjective responses"}, {"measurement": "growth, survival, and cell cycle progression", "setting": "[2]", "value": "directly affects growth, survival, and cell cycle progression"}, {"measurement": "PCNA/CD69 expression of CD14 cells", "setting": "CD14^+ cells [3]; after administration of drug", "value": "generally decreased"}, {"measurement": "expression of all macrophage activation parameters", "setting": "CD14^+ cells [3]; day 35 after initiation of study", "value": "low to background level"}]}]}
